pIC50: −log10 of the molar value.

One assay concerns Onchocerca gutturosa adult male worms. The experiment in a line: Onchocerciasis in vitro screening model Onchocerca gutturosa (worm motility score and MTT/formazan colorimetry). The conditions noted are these: Onchocerca gutturosa, read-out: O. gutt Act class.
Method: Onchocerciasis: In Vitro Screening Model Onchocerca gutturosa
Parasite and cell cultures. Onchocerca gutturosa adult male worms were obtained by dissection from the nuchal ligament connective tissues of naturally infected cattle, from Gambia, W Africa.
The worms were maintained for at least 24 h in culture before use in Eagles Minimum Essential Medium with Earl's Salts (Gibco, UK)+10% heat inactivated new born calf serum (Gibco, UK)+antibiotic cover of 200 units/ml penicillin, 200 μg/ml streptomycin and 0.5 μg/ml amphotericin B (Sigma, UK). Only normally active specimens were used in the test. All cultures and assays were conducted at 37° C. under an atmosphere of 5% CO2 in air.
Drug sensitivity assays. Compound stock solutions were prepared in 100% DMSO unless otherwise indicated and diluted into the medium. Any unused compound stocks were stored at −20° C. Assays were performed in sterile 24-well (2 ml) plates (Falcon, UK).
Worms were then transferred individually to each well of the plate using fine forceps. Worm viability was assessed using 2 parameters: • The measurement of mean worm motility scores on a scale of 0 (immotile) to 10 (maximum) every 24 h, terminating at 120 h, using an Olympus inverted microscope. • The biochemical evaluation of worm viability using MTT/formazan colorimetry. The MTT assay was carried out after the last motility reading (120 h). Single intact worms were placed in each well of a 48-well plate (Falcon, UK) containing 0.5 ml of a solution consisting of 0.5 mg/ml MTT (Sigma UK) in phosphate buffered saline, and then incubated for 30 min at 37° C. The worms were removed, blotted carefully, and individually transferred to separate wells of a 96-well microtiter plate, each containing 200 μl of DMSO to solubilize the formazan. After 1 h the plate was gently agitated to disperse the color evenly and the absorbance value (optical density) of the resulting formazan solution was determined at 490 nm using a multi-well scanning spectrophotometer (Elisa-reader, Dynatech, UK). Inhibition of formazan formation was correlated with worm damage or death.
Primary screen. New compounds were usually tested at 1.25×10^−5 M. Also expressed in μg/ml.
Secondary screen. […] Serial 1 in 4 drug dilutions was carried out to find activity endpoint and EC50 values for motility reduction and inhibition of formazan formation were produced. EC50 values were determined using Excel or Origin V7 scientific graphing and data analysis software.
As for `Cc1cccnc1Nc1cc(-c2ccc(OC3CCOCC3)cn2)nn1-c1ccccc1` [Example 234, 3-methyl-N-(1-phenyl-3-(5-(tetrahydro-2H-pyran-4-yloxy)pyridin-2-yl)-1H-pyrazol-5-yl)pyridin-2-amine], the pIC50 is 5.30 to 6.30.
`Cc1ccnc(Nc2cc(-c3ncccc3C)nn2-c2ccccc2)c1` [Example 235, 4-methyl-N-(3-(3-methylpyridin-2-yl)-1-phenyl-1H-pyrazol-5-yl)pyridin-2-amine]: the pIC50 was 5.30 to 6.30.
With `COc1ccc(-c2cc(Nc3cc(OC(C)C)ccn3)[nH]n2)nc1` [Example 236, 4-isopropoxy-N-(3-(5-methoxypyridin-2-yl)-1H-pyrazol-5-yl)pyridin-2-amine], the pIC50 was 5.30 to 6.30.
Same read-out and setting: as for `Cc1cccnc1Nc1cc(-c2ccc(OC3CCOCC3)cn2)n[nH]1` [Example 237, 3-methyl-N-(3-(5-(tetrahydro-2H-pyran-4-yloxy)pyridin-2-yl)-1H-pyrazol-5-yl)pyridin-2-amine], the figure is 5.30 to 6.30; as for `c1ccc(-c2ccnc(Nc3cc(-c4ccccn4)n[nH]3)c2)cc1` [Example 238, 4-phenyl-N-(3-(pyridin-2-yl)-1H-pyrazol-5-yl)pyridin-2-amine], > 6.70.

The assay is the same for the next values; noted with them: read-out: O. gutt Act class; O. gutturosa adult male worms in vitro.
Consider “N- (cyclohexyl- methyl)- 4-(pyridin- 2-yl)-2-(4- (trifluoromethyl) pyridin-2- ylamino) thiazole-5- carboxamide [Example 202]”, for which the pIC50 is 5.30 to 6.30.

The values above are taken from US20240025891A1 (Celgene Corporation, priority 2020, published 2024).
